Measured values from patent US5158963A, “1-4-dihydropyridine derivative, process for preparing the same and pharmaceutical composition containing the same” (Kaken Pharmaceutical Co., Ltd., priority 1989, dated 1992).
“Also recorded” adds a separate entry of the source.

Experiments:
[1] = system: tonic extensive convulsion (maximal electroshock-induced seizures); experiment: Activity against maximal electroshock-induced seizures in mice; type: in vivo, mouse (Slc:ddy male mice); conditions: oral
Text: In each group six Slc: ddy male mice weighing 26 to 31 g (5 weeks) were employed. Sixty minutes after oral administration of a test compound, corneal electrodes which were wet by physiological saline were contacted with both eyes of a mouse. Then, appearance of tonic extensive convulsion (TE) caused by electrifying under a stimulation condition of 50 mA, 1000 V and 0.2 sec by means of the apparatus of Woodburg & Davenport (made by Kyoto Keisokuki) was judged as indication.
Each of diphenylhydantoin, the compounds Nos. 2, 4, 5, 6, 7, 50, 51 and 52 of the present invention (refer Table 1, hereinafter the same) and nimodipine was suspended in a 0.5% solution of methyl cellulose to subject the test. Flunarizine was suspended in a 5% solution of gum arabic to subject the test.

[2] = system: immobility time of forced swimming test; experiment: Activity against immobility time of forced swimming test in mice; type: in vivo, mouse (Slc:ICR male mice); conditions: oral
Procedure: In each group 6 Slc:ICR male mice weighing 25 to 32 g (5 weeks) were bred at the room temperature of 22° to 24° C. under an environment of 60% humidity for 1 week, and then the bred mice were subjected to the following test. The test was carried out by monitering action to voluntarily escape with TV camera when a mouse was put into a cylinder of which inner diameter was 11 cm wherein 17 cm of water being the temperature 25° C. as added. As indication immobility time for 6 minutes was measured. In the test mice were employed which were compulsorily swun for 6 minutes in once per day for continuous 3 day. The investigation for immobility time was carried out by measuring immobility time for 6 minutes 1 hour after oral administration of a test compound. Each of test compound was suspended in a 0.5% solution of methyl cellulose used as a control group. Significant difference is shown with the significance level (* : p<0.05) obtained by comparing data of control group by LSD method.

blood pressure = experiment: Activity for blood pressure in rats; type: in vivo, rat (Wister male rats); conditions: oral; for Blood pressure: 100 mg/kg; for activity for decreasing blood pressure (in words): normal rats
Procedure: In each group 4 Wister male rats weighing 200 to 300 g (10 to 15 weeks) were employed. The day before a test, rats were anesthetized with eter, and a polyethylene tube was inserted into aorta abdominalis of a rat. The other end of the polyethylene tube was led out of the rat's body. The led polyethylene tube was connected with a pressure transducer (RM-85, made by Yamamoto Kohden). Blood pressure was measured under a condition of no restriction.

[3] = system: decapitation induced hypoxia; experiment: Activity against decapitation induced hypoxia in mice; type: in vivo, mouse (Slc:ddy male mice); conditions: oral; for inhibition in vivo at 10 mg/kg / inhibition in vivo at 30 mg/kg / inhibition in vivo at 100 mg/kg: Mus musculus, 1 h, 60 min before decapitation, duration of gasping vs control, read-out: Inhibition rate
Procedure: In each group five Slc:ddy male mice weighing 20 to 22 g (4 weeks) were employed. Sixty minutes after oral administration of a test compound, mice were decapitated with a guillotine. After the decapitation, duration of gasping of head was measured with a timer (CT-916 Type, made by HATTORI SEIKO CO., LTD.) gearing into the guillotine.
Each of test compound was suspended in a 0.5% solution of methyl cellulose and administered. Inhibition rate was calculated by comparing with a 0.5% aqueous solution of methyl cellulose as control. That is, the inhibition rate was calculated by the following formula. [formula]

[4] = in vivo; cited from earlier work

SMILES | effect on the immobility time (in words) ([2]; 200 mg/kg) | effect on immobility time of forced swimming test (in words) [2] | inhibition in vivo at 10 mg/kg [3] | inhibition in vivo at 30 mg/kg [3] | inhibitory activity against tonic extensive convulsion (share of cases) ([1]; 200 mg/kg) | inhibition in vivo at 100 mg/kg [3] | also measured
C#Cc1cccc(C2C(C(=O)OCC)=C(C)NC(C)=C2C(=O)OC(C)C)c1 (stereo not shown) [Compound No. 4, 5-Ethoxycarbonyl-3-isopropoxycarbonyl-1,4-dihydro-2,6-dimethyl-4-(3-ethynylphenyl)pyridine] | showed the effect on the immobility time | immobility time of forced swimming test reduced | 8.8% | 25.7% |  |  | inhibitory activity against tonic extensive convulsion (share of cases) ([1]; 50 mg/kg): two thirds; inhibitory activity against tonic extensive convulsion (share of cases) ([1]; 100 mg/kg): five sixths; effect on the immobility time (in words) ([2]; 50 mg/kg): showed the effect on the immobility time; effect on the immobility time (in words) ([2]; 100 mg/kg): showed the effect on the immobility time; Blood pressure (blood pressure; after 15 min.): 100.1 mmHg; Blood pressure (blood pressure; after 30 min.): 97.2 mmHg; Blood pressure (blood pressure; after 60 min.): 93.4 mmHg; Blood pressure (blood pressure; after 120 min.): 90.5 mmHg; activity for decreasing blood pressure (in words) (blood pressure): very weak activity for decreasing blood pressure; effect in decapitation induced hypoxia (in words) [3]: same extent effect as that of flunarizine; also recorded: stronger effect than that of nimodipine and that of nicardipine
C#Cc1cccc(C2C(C(=O)OCC)=C(C)NC(C)=C2C(=O)OCCC)c1 (stereo not shown) [Compound No. 5, 5-Ethoxycarbonyl-3-n-propoxycarbonyl-1,4-dihydro-2,6-dimethyl-4-(3-ethynylphenyl)pyridine] | showed the effect on the immobility time | immobility time of forced swimming test reduced |  |  | two thirds |  | 
C#Cc1cccc(C2C(C(=O)OC(C)C)=C(C)NC(C)=C2C(=O)OC(C)C)c1 [Compound No. 6, 3,5-Diisopropoxycarbonyl-1,4-dihydro-2,6-dimethyl-4-(3-ethynylphenyl)pyridine] | showed the effect on the immobility time | immobility time of forced swimming test reduced |  |  | a third |  | 
C#Cc1cccc(C2C(C(=O)OC)=C(C)NC(C)=C2C(=O)OC(C)C)c1 (stereo not shown) [Compound No. 7, 5-Isopropoxycarbonyl-3-methoxycarbonyl-1,4-dihydro-2,6-dimethyl-4-(3-ethynylphenyl)pyridine] | showed the effect on the immobility time | immobility time of forced swimming test reduced |  |  | a third |  | 
C#Cc1cccc(C2C(C(=O)OCC)=C(C)NC(C)=C2C(=O)OCC=C)c1 (stereo not shown) [Compound No. 50, 5-Ethoxycarbonyl-3-allyloxycarbonyl-1,4-dihydro-2,6-dimethyl-4-(3-ethynylphenyl)pyridine] | showed the effect on the immobility time | immobility time of forced swimming test reduced |  |  | all cases | 31.1% | 
C#Cc1cccc(C2C(C(=O)OCC)=C(C)NC(C)=C2C(=O)OCC=CC)c1 (stereo not shown) [Compound No. 51, 5-Ethoxycarbonyl-3-crotyloxycarbonyl-1,4-dihydro-2,6-dimethyl-4-(3-ethynylphenyl)pyridine] | showed the effect on the immobility time | immobility time of forced swimming test reduced |  | 25.7% | all cases | 28.3% | 
C#Cc1cccc(C2C(C(=O)OC)=C(C)NC(C)=C2C(=O)OCC=C(C)C)c1 (stereo not shown) [Compound No. 52, 5-Methoxycarbonyl-3-(3-methyl-2-butenyloxycarbonyl)-1,4-dihydro-2,6-dimethyl-4-(3-ethynylphenyl)pyridine] | showed the effect on the immobility time | immobility time of forced swimming test reduced |  |  | two thirds | 26.4% | 
COC(=O)C1=C(C)NC(C)=C(C(=O)OCCN(C)Cc2ccccc2)C1c1cccc([N+](=O)[O-])c1 (stereo not shown) [Nicardipine, 2-(N-benzyl-N-methylamino)ethyl,methyl 2,6-dimethyl-4-(3-nitrophenyl)-1,4-dihydropyridine-3,5-dicarboxylate hydro chloride, reference compound] |  |  | 4.2% | 6.8% |  |  | Blood pressure (blood pressure; after 15 min.): 100.0 mmHg; Blood pressure (blood pressure; after 30 min.): 67.2 mmHg; Blood pressure (blood pressure; after 60 min.): 69.2 mmHg; Blood pressure (blood pressure; after 120 min.): 67.2 mmHg; activity for decreasing blood pressure (in words) (blood pressure): strong antihypertensive activity; also recorded: remarkable activity for decreasing blood pressure
COC(=O)C1=C(C)NC(C)=C(C(=O)OC)C1c1ccccc1[N+](=O)[O-] [Nifedipine, dimethyl 2,6-dimethyl-4-(2-nitrophenyl)-1,4-dihydropyridine-3,5-dicarboxylate] |  |  |  |  |  |  | vasodepressor activity and coronary vasodilator activity [4]: strong
COCCOC(=O)C1=C(C)NC(C)=C(C(=O)OC(C)C)C1c1cccc([N+](=O)[O-])c1 (stereo not shown) [Nimodipine, isopropyl, 2-methoxyethyl 2,6-dimethyl-4-(3-nitrophenyl)-1,4-dihydropyridine-3,5-dicarboxylate, reference compound] |  | ineffective; also recorded: no effect | 2.1% | 9.3% | No inhibitory activity |  | effect on maximal electroshock-induced seizures (in words) [1]: ineffective
